Laboratory results reported in BindingDB's records for doi:10.1021/jm00048a015 (Pfizer, 1994).
pIC50: −log10 of the molar value.

Target: Gastrin/cholecystokinin type B receptor (Cavia porcellus)
Assay: In vitro affinity to the cholecystokinin type B receptor in guinea pig cortex assayed using [125I]BH-CCK-8 as radioligand

pIC50 | SMILES
8.85 | Cc1ccc2c(c1)N(CC(=O)NC(C)(C)C)C(=O)[C@H](NC(=O)Nc1cccc(Cl)c1)C[C@@H]2Cc1ccccc1 [2-{(3R,5S)-5-Benzyl-3-[3-(3-chloro-phenyl)-ureido]-8-methyl-2-oxo-2,3,4,5-tetrahydro-benzo[b]azepin-1-yl}-N-tert-butyl-acetamide]
9.22 | Cc1ccc2c(c1)N(CC(=O)NC(C)(C)C)C(=O)[C@H](NC(=O)Nc1cccc(Cl)c1)C[C@@H]2C1CCCCC1 [N-tert-Butyl-2-{(3R,5R)-3-[3-(3-chloro-phenyl)-ureido]-5-cyclohexyl-8-methyl-2-oxo-2,3,4,5-tetrahydro-benzo[b]azepin-1-yl}-acetamide]
8.47 | Cc1ccc2c(c1)N(CC(=O)NC(C)(C)C)C(=O)[C@H](NC(=O)Nc1cccc(Cl)c1)C[C@@H]2C(C)C [N-tert-Butyl-2-{(3R,5R)-3-[3-(3-chloro-phenyl)-ureido]-5-isopropyl-8-methyl-2-oxo-2,3,4,5-tetrahydro-benzo[b]azepin-1-yl}-acetamide]
7.49 | Cc1ccc2c(c1)[C@@H](c1ccccc1)C[C@@H](NC(=O)Nc1cccc(Cl)c1)C(=O)N2CC(=O)NC(C)(C)C [N-tert-Butyl-2-{(3R,5R)-3-[3-(3-chloro-phenyl)-ureido]-7-methyl-2-oxo-5-phenyl-2,3,4,5-tetrahydro-benzo[b]azepin-1-yl}-acetamide]
8.40 | CC(C)(C)NC(=O)CN1C(=O)[C@H](NC(=O)Nc2cccc(Cl)c2)C[C@H](c2cccc(Cl)c2)c2ccccc21 [N-tert-Butyl-2-{(3R,5R)-5-(3-chloro-phenyl)-3-[3-(3-chloro-phenyl)-ureido]-2-oxo-2,3,4,5-tetrahydro-benzo[b]azepin-1-yl}-acetamide]

Continued, compound first:

SMILES | pIC50
CCC(C)(C)NC(=O)CN1C(=O)[C@H](NC(=O)Nc2cccc(Cl)c2)C[C@H](c2ccccc2)c2ccccc21 [2-{(3R,5R)-3-[3-(3-Chloro-phenyl)-ureido]-2-oxo-5-phenyl-2,3,4,5-tetrahydro-benzo[b]azepin-1-yl}-N-(1,1-dimethyl-propyl)-acetamide] | 8.12
Cc1cccc(NC(=O)N[C@@H]2C[C@H](c3ccccc3)c3ccccc3N(CC(=O)NC(C)(C)C)C2=O)c1 [N-tert-Butyl-2-[(3R,5R)-2-oxo-5-phenyl-3-(3-m-tolyl-ureido)-2,3,4,5-tetrahydro-benzo[b]azepin-1-yl]-acetamide] | 8.00
Cc1ccccc1NC(=O)N[C@@H]1C[C@H](c2ccccc2)c2ccccc2N(CC(=O)NC(C)(C)C)C1=O [N-tert-Butyl-2-[(3R,5R)-2-oxo-5-phenyl-3-(3-o-tolyl-ureido)-2,3,4,5-tetrahydro-benzo[b]azepin-1-yl]-acetamide] | 7.26
Cc1ccc(NC(=O)N[C@@H]2C[C@H](c3ccccc3)c3ccccc3N(CC(=O)NC(C)(C)C)C2=O)cc1 [N-tert-Butyl-2-[(3R,5R)-2-oxo-5-phenyl-3-(3-p-tolyl-ureido)-2,3,4,5-tetrahydro-benzo[b]azepin-1-yl]-acetamide] | 7.46
CN(C(=O)CN1C(=O)[C@H](NC(=O)Nc2cccc(Cl)c2)C[C@H](c2ccccc2)c2ccccc21)C(C)(C)C [N-tert-Butyl-2-{(3R,5R)-3-[3-(3-chloro-phenyl)-ureido]-2-oxo-5-phenyl-2,3,4,5-tetrahydro-benzo[b]azepin-1-yl}-N-methyl-acetamide] | 8.82
COc1cccc(NC(=O)N[C@@H]2C[C@H](c3ccccc3)c3ccccc3N(CC(=O)NC(C)(C)C)C2=O)c1 [N-tert-Butyl-2-{(3R,5R)-3-[3-(3-methoxy-phenyl)-ureido]-2-oxo-5-phenyl-2,3,4,5-tetrahydro-benzo[b]azepin-1-yl}-acetamide] | 7.52
CC(C)(C)NC(=O)CN1C(=O)[C@H](NC(=O)Nc2cccc(Cl)c2)C[C@H](c2ccccc2)c2cc(Cl)ccc21 [N-tert-Butyl-2-{(3R,5R)-7-chloro-3-[3-(3-chloro-phenyl)-ureido]-2-oxo-5-phenyl-2,3,4,5-tetrahydro-benzo[b]azepin-1-yl}-acetamide] | 7.62
Cc1cccc(NC(=O)N[C@@H]2C[C@H](c3ccccc3)c3ccccc3N(CC(=O)OC(C)(C)C)C2=O)c1 [[(3R,5R)-2-Oxo-5-phenyl-3-(3-m-tolyl-ureido)-2,3,4,5-tetrahydro-benzo[b]azepin-1-yl]-acetic acid tert-butyl ester] | 8.60
Cc1ccc2c(c1)N(CC(=O)OC(C)(C)C)C(=O)[C@H](NC(=O)Nc1cccc(Cl)c1)C[C@@H]2c1ccccc1 [{(3R,5R)-3-[3-(3-Chloro-phenyl)-ureido]-8-methyl-2-oxo-5-phenyl-2,3,4,5-tetrahydro-benzo[b]azepin-1-yl}-acetic acid tert-butyl ester] | 8.66
